Experimental data as given in patent US10065963B2 (Incyte Corporation, priority 2015, dated 2018).
Counter-ions that a name gives are not always drawn.

What was measured:
[1] = molecular target: PI3Kγ (p110γ) Recombinant Human Protein (Homo sapiens (Human), UniProt P48736); experiment: PI3K-γ scintillation proximity assay; type: biochemical; details: 2 μM ATP, 20 μM PIP2
[2] = molecular target: PI3Kδ (p110δ/p85α) Recombinant Human Protein (Homo sapiens (Human), UniProt O00329); experiment: PI3Kδ scintillation proximity assay; type: biochemical; details: 2 μM ATP, 20 μM PIP2
[3] = tested on: Phosphorylated Ribosomal Protein S6 (RPS6) in THP-1 cells; experiment: THP-1 RPS6 ELISA assay; type: cell-based, human; details: Homo sapiens, THP-1, THP-1 cells, 10 nM MCP-1; read-out: PI3Kγ_THP1_RPS6_ELISA IC50

PI3Kδ (p110δ/p85α) Recombinant Human Protein, sequence (O00329 whole entry): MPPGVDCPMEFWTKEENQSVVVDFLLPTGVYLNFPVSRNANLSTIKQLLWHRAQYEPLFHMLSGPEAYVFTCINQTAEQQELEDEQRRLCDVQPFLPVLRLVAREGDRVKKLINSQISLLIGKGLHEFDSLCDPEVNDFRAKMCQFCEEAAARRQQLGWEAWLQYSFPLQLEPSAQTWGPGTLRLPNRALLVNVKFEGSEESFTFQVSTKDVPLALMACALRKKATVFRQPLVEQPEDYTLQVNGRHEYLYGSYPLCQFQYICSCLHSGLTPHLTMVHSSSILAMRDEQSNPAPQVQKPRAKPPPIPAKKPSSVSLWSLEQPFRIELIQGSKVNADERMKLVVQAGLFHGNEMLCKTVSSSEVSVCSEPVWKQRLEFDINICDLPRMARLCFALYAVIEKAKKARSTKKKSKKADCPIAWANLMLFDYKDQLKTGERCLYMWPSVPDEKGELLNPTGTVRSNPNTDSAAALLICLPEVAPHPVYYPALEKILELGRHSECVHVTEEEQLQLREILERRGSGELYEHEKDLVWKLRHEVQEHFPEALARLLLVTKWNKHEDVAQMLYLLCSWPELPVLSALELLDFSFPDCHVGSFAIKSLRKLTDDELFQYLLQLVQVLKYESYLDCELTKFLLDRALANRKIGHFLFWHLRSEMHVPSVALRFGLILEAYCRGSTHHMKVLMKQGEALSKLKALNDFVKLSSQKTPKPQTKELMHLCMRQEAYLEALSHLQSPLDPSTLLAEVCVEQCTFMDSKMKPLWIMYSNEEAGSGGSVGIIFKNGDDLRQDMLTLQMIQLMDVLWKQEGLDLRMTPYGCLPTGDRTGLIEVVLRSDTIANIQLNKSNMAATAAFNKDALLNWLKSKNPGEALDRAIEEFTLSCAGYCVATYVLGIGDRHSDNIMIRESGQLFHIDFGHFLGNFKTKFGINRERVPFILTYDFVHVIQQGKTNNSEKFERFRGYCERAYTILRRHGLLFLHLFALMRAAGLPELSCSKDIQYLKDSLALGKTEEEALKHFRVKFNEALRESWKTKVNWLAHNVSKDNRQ
PI3Kδ (p110δ/p85α) Recombinant Human Protein, sequence (P27986 whole entry partner): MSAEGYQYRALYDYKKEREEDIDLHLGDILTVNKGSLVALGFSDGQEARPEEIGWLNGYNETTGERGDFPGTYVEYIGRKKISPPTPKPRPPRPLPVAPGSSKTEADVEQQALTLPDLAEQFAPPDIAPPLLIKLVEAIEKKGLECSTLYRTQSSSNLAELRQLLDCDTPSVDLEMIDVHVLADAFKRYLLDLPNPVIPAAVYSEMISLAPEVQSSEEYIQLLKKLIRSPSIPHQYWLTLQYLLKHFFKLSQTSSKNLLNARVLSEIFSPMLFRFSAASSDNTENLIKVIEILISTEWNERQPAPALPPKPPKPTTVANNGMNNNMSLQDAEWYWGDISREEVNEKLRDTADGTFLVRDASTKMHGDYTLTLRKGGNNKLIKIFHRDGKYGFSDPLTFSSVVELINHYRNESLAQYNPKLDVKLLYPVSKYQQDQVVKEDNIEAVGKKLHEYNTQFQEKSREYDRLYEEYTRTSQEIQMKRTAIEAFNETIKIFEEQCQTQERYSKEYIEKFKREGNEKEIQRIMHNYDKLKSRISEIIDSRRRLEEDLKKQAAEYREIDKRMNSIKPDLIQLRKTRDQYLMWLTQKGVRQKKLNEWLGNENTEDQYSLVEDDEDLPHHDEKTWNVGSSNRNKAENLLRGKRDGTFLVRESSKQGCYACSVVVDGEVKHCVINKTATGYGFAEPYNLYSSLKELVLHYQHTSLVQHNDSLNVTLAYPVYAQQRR
PI3Kγ (p110γ) Recombinant Human Protein, sequence (P48736 whole entry): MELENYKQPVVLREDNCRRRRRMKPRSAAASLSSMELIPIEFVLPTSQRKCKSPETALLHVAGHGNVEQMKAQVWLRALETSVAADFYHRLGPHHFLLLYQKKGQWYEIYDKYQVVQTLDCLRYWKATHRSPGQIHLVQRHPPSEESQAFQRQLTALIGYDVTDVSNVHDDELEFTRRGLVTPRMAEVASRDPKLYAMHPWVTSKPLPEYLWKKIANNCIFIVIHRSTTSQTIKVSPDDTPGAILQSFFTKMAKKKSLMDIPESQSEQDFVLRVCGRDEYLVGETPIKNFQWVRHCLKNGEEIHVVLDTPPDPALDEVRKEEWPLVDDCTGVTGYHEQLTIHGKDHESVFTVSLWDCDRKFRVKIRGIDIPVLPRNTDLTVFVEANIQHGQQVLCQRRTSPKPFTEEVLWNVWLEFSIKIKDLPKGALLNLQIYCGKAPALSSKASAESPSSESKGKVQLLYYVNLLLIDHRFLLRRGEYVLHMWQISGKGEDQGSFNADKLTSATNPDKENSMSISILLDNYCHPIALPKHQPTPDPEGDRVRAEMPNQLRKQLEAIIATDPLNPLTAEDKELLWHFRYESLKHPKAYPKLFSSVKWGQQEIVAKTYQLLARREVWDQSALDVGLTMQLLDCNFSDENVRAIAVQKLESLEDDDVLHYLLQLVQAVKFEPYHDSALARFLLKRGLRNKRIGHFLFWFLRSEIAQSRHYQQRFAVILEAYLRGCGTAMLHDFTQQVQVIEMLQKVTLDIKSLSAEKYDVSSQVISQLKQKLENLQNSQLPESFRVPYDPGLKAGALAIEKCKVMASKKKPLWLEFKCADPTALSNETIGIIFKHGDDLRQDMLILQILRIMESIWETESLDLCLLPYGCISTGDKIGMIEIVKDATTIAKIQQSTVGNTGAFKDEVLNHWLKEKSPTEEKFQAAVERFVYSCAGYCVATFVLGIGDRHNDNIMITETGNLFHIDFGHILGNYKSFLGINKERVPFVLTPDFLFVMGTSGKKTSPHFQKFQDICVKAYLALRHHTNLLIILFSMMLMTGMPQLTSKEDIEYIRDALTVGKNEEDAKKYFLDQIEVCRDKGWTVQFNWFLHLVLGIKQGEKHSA

SMILES | IC50 [1] | IC50 [2] | IC50 [3]
CC(NC(=O)c1c(N)nn2cccnc12)c1cc(Cl)c2cncn2c1N1CCC(F)CC1 (stereo not drawn) [Example 66, 2-Amino-N-{1-[8-chloro-5-(4-fluoropiperidin-1-yl)imidazo[1,5-a]pyridin-6-yl]ethyl}pyrazolo[1,5-a]pyrimidine-3-carboxamide bistrifluoroacetate] | < 100 nM | < 100 nM | < 500 nM
CC(NC(=O)c1c(N)nn2cccnc12)c1cc(Cl)c2cncn2c1N1CCC(F)(F)C1 (stereo not drawn) [Example 68, 2-Amino-N-{1-[8-chloro-5-(3,3-difluoropyrrolidin-1-yl)imidazo[1,5-a]pyridin-6-yl]ethyl}pyrazolo[1,5-a]pyrimidine-3-carboxamide bistrifluoroacetate] | < 100 nM | < 100 nM | < 500 nM
CC(NC(=O)c1c(N)nn2cccnc12)c1cc(Cl)c2cncn2c1N1CCC[C@@H]1C (stereo partly drawn) [Example 71B, 2-Amino-N-(1-{8-chloro-5-[(2S)-2-methylpyrrolidin-1-yl]imidazo[1,5-a]pyridin-6-yl}ethyl)pyrazolo[1,5-a]pyrimidine-3-carboxamide bistrifluoroacetate] | < 100 nM | < 100 nM | < 500 nM
CC(NC(=O)c1c(N)nn2cccnc12)c1cc(Cl)c2cncn2c1N1CCCC[C@@H]1C (stereo partly drawn) [Example 72B, 2-Amino-N-{1-[8-chloro-5-[(2S)-2-methylpiperidin-1-yl)imidazo[1,5-a]pyridin-6-yl]ethyl}pyrazolo[1,5-a]pyrimidine-3-carboxamide bistrifluoroacetate] | < 100 nM | < 100 nM | < 500 nM
CC(NC(=O)c1c(N)nn2cccnc12)c1cc(Cl)c2cncn2c1N1CCC(C)(C)C1 (stereo not drawn) [Example 74, 2-Amino-N-{1-[8-chloro-5-(3,3-dimethylpyrrolidin-1-yl)imidazo[1,5-a]pyridin-6-yl]ethyl}pyrazolo[1,5-a]pyrimidine-3-carboxamide bistrifluoroacetate] | < 100 nM | < 100 nM | < 500 nM
CC(NC(=O)c1c(N)nn2cccnc12)c1cc(Cl)c2cncn2c1N1CCC2(CC1)COC(=O)N2 (stereo not drawn) [Example 79, 2-Amino-N-{1-[8-chloro-5-(2-oxo-3-oxa-1,8-diazaspiro[4.5]dec-8-yl)imidazo[1,5-a]pyridin-6-yl]ethyl}pyrazolo[1,5-a]pyrimidine-3-carboxamide trifluoroacetate] | < 100 nM | < 500 nM | > 1000 nM
COCCOc1c(C(C)NC(=O)c2c(N)nn3cccnc23)cc(Cl)c2cn[nH]c12 (stereo not drawn) [Example 81, 2-Amino-N-(1-(4-chloro-7-(2-methoxyethoxy)-1H-indazol-6-yl)ethyl)pyrazolo[1,5-a]pyrimidine-3-carboxamide trifluoroacetate] | < 100 nM | < 100 nM | < 500 nM
CC(NC(=O)c1c(N)nn2cccnc12)c1cc(Cl)c2cn[nH]c2c1OC(F)F (stereo not drawn) [Example 83, 2-Amino-N-(1-(4-chloro-7-(difluoromethoxy)-1H-indazol-6-yl)ethyl)pyrazolo[1,5-a]pyrimidine-3-carboxamide trifluoroacetate] | < 100 nM | < 100 nM | < 500 nM

Now from value to compound:

IC50 [1] | IC50 [2] | IC50 [3] | SMILES
< 100 nM | < 100 nM | < 500 nM | CC(NC(=O)c1c(N)nn2cccnc12)c1cc(Cl)c2cncn2c1N1CCC(F)(F)CC1 (stereo not drawn) [Example 65, 2-Amino-N-{1-[8-chloro-5-(4,4-difluoropiperidin-1-yl)imidazo[1,5-a]pyridin-6-yl]ethyl}pyrazolo[1,5-a]pyrimidine-3-carboxamide bistrifluoroacetate]
< 100 nM | < 100 nM | < 500 nM | CC(NC(=O)c1c(N)nn2cccnc12)c1cc(Cl)c2cncn2c1N1CCCC(F)(F)C1 (stereo not drawn) [Example 67, 2-Amino-N-{1-[8-chloro-5-(3,3-difluoropiperidin-1-yl)imidazo[1,5-a]pyridin-6-yl]ethyl}pyrazolo[1,5-a]pyrimidine-3-carboxamide bis trifluroacetate]
< 100 nM | < 500 nM | < 1000 nM | CC1CCN(c2c(C(C)NC(=O)c3c(N)nn4cccnc34)cc(Cl)c3cncn23)CC1 (stereo not drawn) [Example 69, 2-Amino-N-{1-[8-chloro-5-(4-methylpiperidin-1-yl)imidazo[1,5-a]pyridin-6-yl]ethyl}pyrazolo[1,5-a]pyrimidine-3-carboxamide bistrifluoroacetate]
< 100 nM | < 100 nM | < 500 nM | CC(NC(=O)c1c(N)nn2cccnc12)c1cc(Cl)c2cncn2c1N1CCCC1(C)C (stereo not drawn) [Example 70, 2-Amino-N-{1-[8-chloro-5-(2,2-dimethylpyrrolidin-1-yl)imidazo[1,5-a]pyridin-6-yl]ethyl}pyrazolo[1,5-a]pyrimidine-3-carboxamide bistrifluoroacetate]
< 100 nM | < 500 nM | < 1000 nM | CC(NC(=O)c1c(N)nn2cccnc12)c1cc(Cl)c2cncn2c1N1CCC[C@H]1C (stereo partly drawn) [Example 71A, 2-Amino-N-(1-{8-chloro-5-[(2R)-2-methylpyrrolidin-1-yl]imidazo[1,5-a]pyridin-6-yl}ethyl)pyrazolo[1,5-a]pyrimidine-3-carboxamide bistrifluoroacetate]
< 100 nM | < 100 nM | < 500 nM | CC(NC(=O)c1c(N)nn2cccnc12)c1cc(Cl)c2cncn2c1N1CCCC[C@H]1C (stereo partly drawn) [Example 72A, 2-Amino-N-{1-[8-chloro-5-[(2R)-2-methylpiperidin-1-yl)imidazo[1,5-a]pyridin-6-yl]ethyl}pyrazolo[1,5-a]pyrimidine-3-carboxamide bistrifluoroacetate]
< 100 nM | < 500 nM | < 500 nM | CC(NC(=O)c1c(N)nn2cccnc12)c1cc(Cl)c2cncn2c1N1CC[C@@H](F)C1 (stereo partly drawn) [Example 75A, 2-Amino-N-(1-{8-chloro-5-[(3R)-3-fluoropyrrolidin-1-yl]imidazo[1,5-a]pyridin-6-yl}ethyl)pyrazolo[1,5-a]pyrimidine-3-carboxamide bistrifluoroacetate]
< 100 nM | < 100 nM | < 500 nM | CC(NC(=O)c1c(N)nn2cccnc12)c1cc(Cl)c2cncn2c1N1CC[C@H](F)C1 (stereo partly drawn) [Example 75B, 2-Amino-N-(1-{8-chloro-5-[(3S)-3-fluoropyrrolidin-1-yl]imidazo[1,5-a]pyridin-6-yl}ethyl)pyrazolo[1,5-a]pyrimidine-3-carboxamide bistrifluoroacetate]
< 100 nM | < 500 nM | < 500 nM | CC(NC(=O)c1c(N)nn2cccnc12)c1cc(Cl)c2cncn2c1N1CCC2(CC1)CNC(=O)O2 (stereo not drawn) [Example 80, 2-Amino-N-{1-[8-chloro-5-(2-oxo-1-oxa-3,8-diazaspiro[4.5]dec-8-yl)imidazo[1,5-a]pyridin-6-yl]ethyl}pyrazolo[1,5-a]pyrimidine-3-carboxamide trifluoroacetate]
< 100 nM | < 100 nM | < 500 nM | COc1c(C(C)NC(=O)c2c(N)nn3cccnc23)cc(Cl)c2cn[nH]c12 (stereo not drawn) [Example 82, 2-Amino-N-(1-(4-chloro-7-methoxy-1H-indazol-6-yl)ethyl)pyrazolo[1,5-a]pyrimidine-3-carboxamide trifluoroacetate]
